In patent publication US20230398130A1, “METHODS AND COMPOSITIONS FOR DIFFERENTIATING STEM CELLS” (Massachusetts Institute of Technology, priority 2020, published 2023):

What was measured:
[1] = test system: ISC-enriched organoids; test: Primary screen, 384-well 2.5-D organoid differentiation (ENR+CD, 6 days): basal lysozyme secretion (LYZ.NS); assay type: cell-based, murine; conditions: for Dose.FC.LYZ.NS: FC vs plate median; for SSMD.LYZ.NS: strictly standardized mean difference; for Dose.FC.LYZ.NS (log 2 fold change, basal lysozyme secretion): vs plate median
Excerpt: (§1) High-throughput screening.

[2] = test system: ISC-enriched organoids; test: Primary screen, 384-well 2.5-D organoid differentiation (ENR+CD, 6 days): carbachol-induced lysozyme secretion (LYZ.S); assay type: cell-based, murine; conditions: for Dose.FC.LYZ.S: FC vs plate median; for Z.LYZ.S: standard z score; for SSMD.LYZ.S: strictly standardized mean difference; for Dose.FC.LYZ.S (log 2 fold change, carbachol-induced lysozyme secretion): vs plate median
Excerpt: as §1

[3] = test system: ISC-enriched organoids; test: Primary screen, 384-well 2.5-D organoid differentiation (ENR+CD, 6 days, Target Selective Inhibitor Library, vs whole-plate median): ATP (CellTiter-Glo 3D, CTG); conditions: for Dose.FC.CTG: FC vs plate median; for SSMD.CTG: strictly standardized mean difference; for Dose.FC.CTG (log 2 fold change, ATP): vs plate median
[4] = Dose 0.08 uM, standard z score of FC
[5] = Dose 0.40 uM, standard z score of FC
[6] = Dose 2.00 uM, standard z score of FC
[7] = Dose 10.00 uM, standard z score of FC
[8] = Dose 0.08 uM, primary screen, standard z score
[9] = Dose 0.40 uM, primary screen, standard z score
[10] = Dose 2.00 uM, primary screen, standard z score
[11] = Dose 10.00 uM, primary screen, standard z score
[12] = primary screen, 1st of the 4 dose lines of the treatment (dose not given)
[13] = primary screen, 2nd of the 4 dose lines of the treatment (dose not given)
[14] = primary screen, 3rd of the 4 dose lines of the treatment (dose not given)
[15] = primary screen, 4th of the 4 dose lines of the treatment (dose not given)

`CC(C)C[C@H](NC(=O)[C@@H](NC(=O)c1cccc(-c2ccccc2)n1)[C@@H](C)O)B(O)O` [CEP-18770 (Delanzomib)] gave a Dose.FC.LYZ.NS ([1]; Dose 0.08 uM, ENR+CD, 6 days) of −0.108 log 2 fold change, a Z.LYZ.NS [1, 4] of −0.937 and a Dose.FC.LYZ.NS ([1]; Dose 0.40 uM, ENR+CD, 6 days) of −0.076 log 2 fold change. The Z.LYZ.NS [1, 5] was −0.664, the Dose.FC.LYZ.NS ([1]; Dose 2.00 uM, ENR+CD, 6 days) was −0.063 log 2 fold change and the Z.LYZ.NS [1, 6] was −0.546. For the same molecule, the Dose.FC.LYZ.NS ([1]; Dose 10.00 uM, ENR+CD, 6 days) was −0.035 log 2 fold change, the Z.LYZ.NS [1, 7] was −0.308 and the Dose.FC.LYZ.S ([2]; Dose 0.08 uM, ENR+CD, 6 days) was −0.179 log 2 fold change. The Dose.FC.LYZ.S ([2]; Dose 0.40 uM, ENR+CD, 6 days) was −0.159 log 2 fold change, the Dose.FC.LYZ.S ([2]; Dose 2.00 uM, ENR+CD, 6 days) was −0.180 log 2 fold change and the Dose.FC.LYZ.S ([2]; Dose 10.00 uM, ENR+CD, 6 days) was −0.149 log 2 fold change. The Dose.FC.CTG ([3]; Dose 0.08 uM, ENR+CD, 6 days) was −0.953 log 2 fold change, the Z.CTG [3, 4] was −2.276 and the Dose.FC.CTG ([3]; Dose 0.40 uM, ENR+CD, 6 days) was −1.642 log 2 fold change. For the same molecule, the Z.CTG [3, 5] was −3.923, the Dose.FC.CTG ([3]; Dose 2.00 uM, ENR+CD, 6 days) was −0.990 log 2 fold change and the Z.CTG [3, 6] was −2.364. It also gave a Dose.FC.CTG ([3]; Dose 10.00 uM, ENR+CD, 6 days) of −1.148 log 2 fold change and a Z.CTG [3, 7] of −2.742.
`CC(C)(C)Cn1c(N)nc2ccc(-c3[nH]c(C(C)(C)C)nc3-c3ccc(F)cc3)nc21` [LY2228820] gave a Dose.FC.LYZ.NS ([1]; Dose 0.08 uM, primary screen) of 0.065 log 2 fold change, a Z.LYZ.NS [1, 8] of 0.569 and a Dose.FC.LYZ.NS ([1]; Dose 0.40 uM, primary screen) of −0.100 log 2 fold change. The Z.LYZ.NS [1, 9] was −0.874, the Dose.FC.LYZ.NS ([1]; Dose 2.00 uM, primary screen) was 0.043 log 2 fold change and the Z.LYZ.NS [1, 10] was 0.377. It also gave a Dose.FC.LYZ.NS ([1]; Dose 10.00 uM, primary screen) of −0.126 log 2 fold change, a Z.LYZ.NS [1, 11] of −1.099 and an SSMD.LYZ.NS [1, 12] of 0.186. For the same molecule, the SSMD.LYZ.NS [1, 13] was −0.798, the SSMD.LYZ.NS [1, 14] was 0.123 and the SSMD.LYZ.NS [1, 15] was −1.170. It also gave a Dose.FC.LYZ.S ([2]; Dose 0.08 uM, primary screen) of −0.017 log 2 fold change, a Dose.FC.LYZ.S ([2]; Dose 0.40 uM, primary screen) of −0.054 log 2 fold change and a Dose.FC.LYZ.S ([2]; Dose 2.00 uM, primary screen) of −0.130 log 2 fold change. For the same molecule, the Dose.FC.LYZ.S ([2]; Dose 10.00 uM, primary screen) was −0.164 log 2 fold change, the Z.LYZ.S [2, 12] was −0.107 and the Z.LYZ.S [2, 13] was −0.348. The Z.LYZ.S [2, 14] was −0.844, the Z.LYZ.S [2, 15] was −1.062 and the SSMD.LYZ.S [2, 12] was −0.087. The SSMD.LYZ.S [2, 13] was −0.344, the SSMD.LYZ.S [2, 14] was −0.692 and the SSMD.LYZ.S [2, 15] was −1.268. It also gave a Dose.FC.CTG ([3]; Dose 0.08 uM, primary screen) of −0.299 log 2 fold change, a Z.CTG [3, 8] of −0.715 and a Dose.FC.CTG ([3]; Dose 0.40 uM, primary screen) of −0.340 log 2 fold change. It also gave a Z.CTG [3, 9] of −0.812, a Dose.FC.CTG ([3]; Dose 2.00 uM, primary screen) of −0.339 log 2 fold change and a Z.CTG [3, 10] of −0.810. It also gave a Dose.FC.CTG ([3]; Dose 10.00 uM, primary screen) of −0.332 log 2 fold change, a Z.CTG [3, 11] of −0.793 and an SSMD.CTG [3, 12] of −0.908. It also gave an SSMD.CTG [3, 13] of −0.614, an SSMD.CTG [3, 14] of −0.794 and an SSMD.CTG [3, 15] of −0.937.
With `COc1nc(C)cnc1NS(=O)(=O)c1cccnc1-c1ccc(-c2nnco2)cc1` [Zibotentan (ZD4054)] the “Z.LYZ.NS (standard z score)” value ([1]; dose 0.08 uM) was 0.820, the “Dose.FC.LYZ.NS (log 2 fold change, basal lysozyme secretion)” value ([1]; dose 0.08 uM) was 0.094 and the “Z.LYZ.NS (standard z score)” value ([1]; dose 0.40 uM) was 0.474. The “Dose.FC.LYZ.NS (log 2 fold change, basal lysozyme secretion)” value ([1]; dose 0.40 uM) was 0.054, the “Z.LYZ.NS (standard z score)” value ([1]; dose 2.00 uM) was −0.029 and the “Dose.FC.LYZ.NS (log 2 fold change, basal lysozyme secretion)” value ([1]; dose 2.00 uM) was −0.003. The “Z.LYZ.NS (standard z score)” value ([1]; dose 10.00 uM) was 0.877, the “Dose.FC.LYZ.NS (log 2 fold change, basal lysozyme secretion)” value ([1]; dose 10.00 uM) was 0.101 and the “Dose.FC.LYZ.S (log 2 fold change, carbachol-induced lysozyme secretion)” value ([2]; dose 0.08 uM) was 0.168. For the same molecule, the “Dose.FC.LYZ.S (log 2 fold change, carbachol-induced lysozyme secretion)” value ([2]; dose 0.40 uM) was 0.130, the “Dose.FC.LYZ.S (log 2 fold change, carbachol-induced lysozyme secretion)” value ([2]; dose 2.00 uM) was −0.038 and the “Dose.FC.LYZ.S (log 2 fold change, carbachol-induced lysozyme secretion)” value ([2]; dose 10.00 uM) was 0.050. For the same molecule, the “Z.CTG (standard z score)” value ([3]; dose 0.08 uM) was 0.249, the “Dose.FC.CTG (log 2 fold change, ATP)” value ([3]; dose 0.08 uM) was 0.104 and the “Z.CTG (standard z score)” value ([3]; dose 0.40 uM) was −0.022. The “Dose.FC.CTG (log 2 fold change, ATP)” value ([3]; dose 0.40 uM) was −0.009, the “Z.CTG (standard z score)” value ([3]; dose 2.00 uM) was −1.834 and the “Dose.FC.CTG (log 2 fold change, ATP)” value ([3]; dose 2.00 uM) was −0.768. For the same molecule, the “Z.CTG (standard z score)” value ([3]; dose 10.00 uM) was −0.003 and the “Dose.FC.CTG (log 2 fold change, ATP)” value ([3]; dose 10.00 uM) was −0.001.
With `Cc1ccccc1C(=O)Nc1ccc(C(=O)N2CCCC(N(C)C)c3ccccc32)cc1` (stereo not drawn) [Mozavaptan] the SSMD.LYZ.NS [1, 12] was 0.283, the SSMD.LYZ.NS [1, 13] was −0.203 and the SSMD.LYZ.NS [1, 14] was 0.340. It also gave an SSMD.LYZ.NS [1, 15] of −1.544, a Z.LYZ.S [2, 12] of 0.557 and a Z.LYZ.S [2, 13] of 1.068. It also gave a Z.LYZ.S [2, 14] of 0.688, a Z.LYZ.S [2, 15] of −1.745 and an SSMD.LYZ.S [2, 12] of 0.266. For the same molecule, the SSMD.LYZ.S [2, 13] was 0.560, the SSMD.LYZ.S [2, 14] was 0.775 and the SSMD.LYZ.S [2, 15] was −1.480. For the same molecule, the Z.CTG [3, 4] was 0.765, the Z.CTG [3, 5] was 0.562 and the Z.CTG [3, 6] was 0.259. The Z.CTG [3, 7] was −0.803, the SSMD.CTG [3, 12] was 0.521 and the SSMD.CTG [3, 13] was 0.427. It also gave an SSMD.CTG [3, 14] of 0.274 and an SSMD.CTG [3, 15] of −0.812.
